US9233971B2, “Lipomacrocycles and uses thereof” (priority 2010, dated 2016)

What was measured:
SSB mRNA in liver [1] = assay: In vivo gene knockdown, liposomal siRNA formulation (Example 3), SSB siRNA; set-up: species or system CD1 mice; conditions: for Targeted mRNA remain in liver: liposomal formulation, SSB siRNA, dose 3.2 mg/kg intravenously, CD1 mice, liver harvested three days later, real-time RT-PCR, GAPDH reference
Protocol: Each liposome formulation was made by mixing lipids of each lipomacrocycle compound (Table 1) combined with DSPC, DMG-PEG 2K, and cholesterol at the weight ratio of 3.85:0.42:0.21:0.79 in ethanol and siRNA in water. Then 5% dextrose water was added in each formulation before dosing to mice.
(§1) All procedures used in animal studies conducted were approved by the Institutional Animal Care and Use Committee (IACUC) and were consistent with local, state and federal regulations as applicable. Mice, rats, and rabbits received siRNA formulations intravenously at dose volume of 0.2 ml, 1 ml, or 10 ml, respectively. Animals were sacrificed 2 to 7 days later. Tissues were harvested and mRNA was isolated with Turbocapture kit (Qiagen) for analyzing change of gene expression with real-time RT-PCR method (SensiMix SYBR One-Step Kit, Bioline). Serum was harvested for analyzing blood chemistry.
(§2) CD1 mice were dosed with lipid particle (Table 1) or liposome (Table 2) siRNA formulation intravenousely and the different tissues were harvested three days later. The gene expression was analyzed with real-time RT-PCR method (for liver, GAPDH as reference gene; for lung and bone marrow, GAPDG and β-actin as reference genes).

APOB mRNA in liver = assay: In vivo gene knockdown, lipid particle siRNA formulation (Example 4), APOB siRNA; set-up: species or system CD1 mice; conditions: for Targeted mRNA remain in liver: lipid particles, APOB siRNA, CD1 mice, liver harvested three days later, real-time RT-PCR, GAPDH reference
Protocol: (§3) Lipid Particle formulations were made by first mixed siRNA in an aqueous solution with DOTMA in organic solvent to produce a water-insoluble precipitate. After isolating and drying the precipitate, the precipitate was dissolved in chloroform and further mixed with other lipids as following: Each lipid particle formulation was consisting of 1 part DOTMA+siRNA complex/5 parts any lipomacrocycle compound (Table 1)/1.5 parts N 6-tetrakis (3-aminopropyl)-1,3-propanediamine cholesteryl carbamate/2.2 parts 1,2-dilinoleoyl-sn-glycero-3-phosphoethanolamine/10.08 parts cholesterol PEG-660/4.32 parts cholesterol PEG-660/0.6 parts cholesterol (weight/weight). All the components were dissolved in chloroform and mixed together. Then, the mixtures were dried overnight in Speedvac. The dried formulations were hydrated by adding in certain amount of 5% dextrose water before dosing to animals intravenously.
as §1, §2

SSB mRNA in liver [2] = assay: In vivo gene knockdown, lipid particle siRNA formulation (Example 4), SSB siRNA; conditions: lipid particles, CD1 mice, liver harvested three days later, real-time RT-PCR, GAPDH reference
Protocol: as §3, §1, §2

SMILES	Targeted mRNA remain in liver (SSB mRNA in liver [1])	also measured
CCCCCCCCCCCCCCOCC(O)CN(CCCN(C)CCCN(CC(O)COCCCCCCCCCCCCCC)CC(O)COCCCCCCCCCCCCCC)CC(O)COCCCCCCCCCCCCCC (stereo not shown) [Compound B1C1]	0.13	Targeted mRNA remain in liver (APOB mRNA in liver; dose 0.8 mg/kg intravenously): 0.82
CCCCCCCCCCOCC(O)CN(CCCN(C)CCCN(CC(O)COCCCCCCCCCC)CC(O)COCCCCCCCCCC)CC(O)COCCCCCCCCCC (stereo not shown) [Compound B1C2]	0.68	
CCCCCCCCCCOCC(O)CN(CCCN1CCN(CCCN(CC(O)COCCCCCCCCCC)CC(O)COCCCCCCCCCC)CC1)CC(O)COCCCCCCCCCC (stereo not shown) [Compound B2C2]	0.36	
CCCCCCCCCCCCC(O)CN(CCCN1CCN(CCCN(CC(O)CCCCCCCCCCCC)CC(O)CCCCCCCCCCCC)CC1)CC(O)CCCCCCCCCCCC (stereo not shown) [Compound B2C6]	0.08	performance of the lipid molecules, best performing compounds (SSB mRNA in liver [1]; ranking based on the results of Table 2 (liposomal formulation, SSB and APOB siRNA)): best performing
CCCCC(CC)COCC(O)CN(CCCN(CC(O)COCC(CC)CCCC)CC(O)COCC(CC)CCCC)CCCN(CC(O)COCC(CC)CCCC)CC(O)COCC(CC)CCCC (stereo not shown) [Compound D1C3]	0.18	
CCCCCCCCCCCCCCC(O)CN(CCCN(CC(O)CCCCCCCCCCCCCC)CC(O)CCCCCCCCCCCCCC)CCCN(CC(O)CCCCCCCCCCCCCC)CC(O)CCCCCCCCCCCCCC (stereo not shown) [Compound D1C7]	0.52	
CCCCC(CC)COCC(O)CN1CCN(Cc2ccccc2)CCN(CC(O)COCC(CC)CCCC)CCN(CC(O)COCC(CC)CCCC)CC1 (stereo not shown) [Compound M1C3]	0.64	
CCCCCCCCCCCCCCCCC(O)CN1CCN(Cc2ccccc2)CCN(CC(O)CCCCCCCCCCCCCCCC)CCN(CC(O)CCCCCCCCCCCCCCCC)CC1 (stereo not shown) [Compound M1C5]	0.6	
CCCCCCCCCCCCCCC(O)CN1CCN(Cc2ccccc2)CCN(CC(O)CCCCCCCCCCCCCC)CCN(CC(O)CCCCCCCCCCCCCC)CC1 (stereo not shown) [Compound M1C7]	0.47	Targeted mRNA remain in liver (SSB mRNA in liver [2]; dose 3.2 mg/kg intravenously): 0.35
CCCCCCCCCCCCCCOCC(O)CN1CCN(Cc2ccccc2)CCN(CC(O)COCCCCCCCCCCCCCC)CCN(Cc2ccccc2)CC1 (stereo not shown) [Compound M6C1]	0.98	Targeted mRNA remain in liver (SSB mRNA in liver [2]; dose 3.2 mg/kg intravenously): 0.64
CCCCCCCCCCCCC(O)CN1CCN(Cc2ccccc2)CCN(CC(O)CCCCCCCCCCCC)CCN(Cc2ccccc2)CC1 (stereo not shown) [Compound M6C6]	0.8	
CC(C)CCC[C@@H](C)[C@H]1CC[C@H]2[C@@H]3CC=C4C[C@@H](OC(=O)N5CCN(Cc6ccccc6)CCNCCN(Cc6ccccc6)CC5)CC[C@]4(C)[C@H]3CC[C@]12C [Compound M6ch1]		Targeted mRNA remain in liver (APOB mRNA in liver; dose 3 mg/kg intravenously): 0.86
CCCCCCCCCCCCCCOCC(O)CN1CCCN(CC(O)COCCCCCCCCCCCCCC)CCCN(CC(O)COCCCCCCCCCCCCCC)CCC1 (stereo not shown) [Compound M9C1]	0.3	Targeted mRNA remain in liver (SSB mRNA in liver [2]; dose 3.2 mg/kg intravenously): 0.2
CCCCC(CC)COCC(O)CN1CCN(CC(O)COCC(CC)CCCC)CCN(CC(O)COCC(CC)CCCC)CCN(CC(O)COCC(CC)CCCC)CCN(CC(O)COCC(CC)CCCC)CCN(CC(O)COCC(CC)CCCC)CC1 (stereo not shown) [Compound M10C3]		Targeted mRNA remain in liver (SSB mRNA in liver [2]; dose 3 mg/kg intravenously): 0.43
CCCCCCCCCCC(O)CN1CCN(CC(O)CCCCCCCCCC)CCN(CC(O)CCCCCCCCCC)CCN(CC(O)CCCCCCCCCC)CCN(CC(O)CCCCCCCCCC)CCN(CC(O)CCCCCCCCCC)CC1 (stereo not shown) [Compound M10C4]		Targeted mRNA remain in liver (SSB mRNA in liver [2]; dose 3 mg/kg intravenously): 0.63
CCCCCCCCCCCCOCC(O)CN1CCN(CC(O)COCCCCCCCCCCCC)CCN(CC(O)COCCCCCCCCCCCC)CCN(CC(O)COCCCCCCCCCCCC)CCN(CC(O)COCCCCCCCCCCCC)CCN(CC(O)COCCCCCCCCCCCC)CC1 (stereo not shown) [Compound M10C8]		Targeted mRNA remain in liver (APOB mRNA in liver; dose 1 mg/kg intravenously): 0.06; performance of the lipid molecules, best compounds (APOB mRNA in liver; ranking based on the results of Table 1 (lipid particles, APOB and SSB siRNA)): best
CC(C)CCC[C@@H](C)[C@H]1CC[C@H]2[C@@H]3CC=C4C[C@@H](OC(=O)N5CCNCCNCCNCCNCCNCC5)CC[C@]4(C)[C@H]3CC[C@]12C [Compound M10ch1]		Targeted mRNA remain in liver (APOB mRNA in liver; dose 3 mg/kg intravenously): 0.39
CCCCCCCCCCCCC(O)CN1CCN(CC(O)CCCCCCCCCCCC)CCN(CC(O)CCCCCCCCCCCC)CCN(CC(O)CCCCCCCCCCCC)CC1 (stereo not shown) [Compound T2C6]	0.66	Targeted mRNA remain in liver (SSB mRNA in liver [2]; dose 3.2 mg/kg intravenously): 0.86

SMILES	Targeted mRNA remain in liver (SSB mRNA in liver [1])	also measured
CCCCC(CC)COCC(O)CN(CCCN(CCCCN(CCCN(CC(O)COCC(CC)CCCC)CC(O)COCC(CC)CCCC)CCCN(CC(O)COCC(CC)CCCC)CC(O)COCC(CC)CCCC)CCCN(CC(O)COCC(CC)CCCC)CC(O)COCC(CC)CCCC)CC(O)COCC(CC)CCCC (stereo not shown) [Compound T4C3]	0.12	
CCCCCCCCCCCCCCOCC(O)CN(CCN(CCN(CC(O)COCCCCCCCCCCCCCC)CC(O)COCCCCCCCCCCCCCC)CCN(CC(O)COCCCCCCCCCCCCCC)CC(O)COCCCCCCCCCCCCCC)CC(O)COCCCCCCCCCCCCCC (stereo not shown) [Compound T5C1]	0.13	
CCCCC(CC)COCC(O)CN(CCN(CCN(CC(O)COCC(CC)CCCC)CC(O)COCC(CC)CCCC)CCN(CC(O)COCC(CC)CCCC)CC(O)COCC(CC)CCCC)CC(O)COCC(CC)CCCC (stereo not shown) [Compound T5C3]	0.43	
CCCCCCCCCCC(O)CN(CCN(CCN(CC(O)CCCCCCCCCC)CC(O)CCCCCCCCCC)CCN(CC(O)CCCCCCCCCC)CC(O)CCCCCCCCCC)CC(O)CCCCCCCCCC (stereo not shown) [Compound T5C4]	0.41	
CC(C)CCC[C@@H](C)[C@H]1CC[C@H]2[C@@H]3CC=C4C[C@@H](OC(=O)NCCN(CCN)CCN)CC[C@]4(C)[C@H]3CC[C@]12C [Compound T5ch1]		Targeted mRNA remain in liver (APOB mRNA in liver; dose 3 mg/kg intravenously): 0.39
CCCCC(CC)COCC(O)CN(CCN(C)CCN(CC(O)COCC(CC)CCCC)CC(O)COCC(CC)CCCC)CC(O)COCC(CC)CCCC (stereo not shown) [MdC3]	0.24	
CCCCCCCCCCCCCCCCC(O)CN(CCN(C)CCN(CC(O)CCCCCCCCCCCCCCCC)CC(O)CCCCCCCCCCCCCCCC)CC(O)CCCCCCCCCCCCCCCC (stereo not shown) [MdC5]	0.45	
CCCCCCCCCCCCC(O)CN(CCN(C)CCN(CC(O)CCCCCCCCCCCC)CC(O)CCCCCCCCCCCC)CC(O)CCCCCCCCCCCC (stereo not shown) [MdC6]	1.1	
CCCCCCCCCCCCCCC(O)CN(CCN(C)CCN(CC(O)CCCCCCCCCCCCCC)CC(O)CCCCCCCCCCCCCC)CC(O)CCCCCCCCCCCCCC (stereo not shown) [MdC7]	0.25	
CCCCCCCCCCOCC(O)CN(CCCN(CCCN(CC(O)COCCCCCCCCCC)CC(O)COCCCCCCCCCC)CC(O)COCCCCCCCCCC)CCCN(CC(O)COCCCCCCCCCC)CC(O)COCCCCCCCCCC (stereo not shown) [NsC2]	0.1	
CCCCCCCCCCC(O)CN(CCCN(CCCN(CC(O)CCCCCCCCCC)CC(O)CCCCCCCCCC)CC(O)CCCCCCCCCC)CCCN(CC(O)CCCCCCCCCC)CC(O)CCCCCCCCCC (stereo not shown) [NsC4]	0.13	
CCCCCCCCCCCCCCC(O)CN(CCCN(CCCN(CC(O)CCCCCCCCCCCCCC)CC(O)CCCCCCCCCCCCCC)CC(O)CCCCCCCCCCCCCC)CCCN(CC(O)CCCCCCCCCCCCCC)CC(O)CCCCCCCCCCCCCC (stereo not shown) [NsC7]	0.1	
CCCCCCCCCCCCCCOCC(O)CN(CCCN(CCCN(CC(O)COCCCCCCCCCCCCCC)CC(O)COCCCCCCCCCCCCCC)CCCN(CC(O)COCCCCCCCCCCCCCC)CC(O)COCCCCCCCCCCCCCC)CC(O)COCCCCCCCCCCCCCC (stereo not shown) [TaC1]	0.1	Targeted mRNA remain in liver (APOB mRNA in liver; dose 0.8 mg/kg intravenously): 0.81
CCCCCCCCCCOCC(O)CN(CCCN(CCCN(CC(O)COCCCCCCCCCC)CC(O)COCCCCCCCCCC)CCCN(CC(O)COCCCCCCCCCC)CC(O)COCCCCCCCCCC)CC(O)COCCCCCCCCCC (stereo not shown) [TaC2]	0.13	
CCCCCCCCCCC(O)CN(CCCN(CCCN(CC(O)CCCCCCCCCC)CC(O)CCCCCCCCCC)CCCN(CC(O)CCCCCCCCCC)CC(O)CCCCCCCCCC)CC(O)CCCCCCCCCC (stereo not shown) [TaC4]	0.12	
CCCCCCCCCCCCC(O)CN(CCCN(CCCN(CC(O)CCCCCCCCCCCC)CC(O)CCCCCCCCCCCC)CCCN(CC(O)CCCCCCCCCCCC)CC(O)CCCCCCCCCCCC)CC(O)CCCCCCCCCCCC (stereo not shown) [TaC6]	0.17	
CCCCCCCCCCCCCCC(O)CN(CCCN(CCCN(CC(O)CCCCCCCCCCCCCC)CC(O)CCCCCCCCCCCCCC)CCCN(CC(O)CCCCCCCCCCCCCC)CC(O)CCCCCCCCCCCCCC)CC(O)CCCCCCCCCCCCCC (stereo not shown) [TaC7]	0.33	
